Data on one compound can be found in publication PMC8070745, “FEN1 Blockade for Platinum Chemo-Sensitization and Synthetic Lethality in Epithelial Ovarian Cancers” (Cancers, 2021).

The test system of experiment [1] is POLβ KO A2780cis cells. Kind of experiment: Cell cycle progression, POLβ KO A2780cis. The format is cell-based, human. To be noted: FEN1i-treated. Here is the method:
(§1) with ice cold PBS and fixed in 70% ethanol for 1h at -20°C. After removal of the fixative solution by centrifugation, cells were stained with 2 µg/ml of phospho-Histone (γH2AX) Ser139 (16202A, Millipore, UK) to detect DSBs.
(§2) Cell cycle progression: Cells were treated with 20 µg/ml RNase A (12091021, Invitrogen) and then 10 µg/ml Propidium Iodide (P4170, Sigma Aldrich) was added to determine the cell cycle distribution. The samples were analysed on a Beckman-Coulter FC500 flow cytometer using a 488nm laser for excitation and emission data for PI collected using a 620nm bandpass filter (FL3) and a 525nm bandpass filter (FL1) for FITC-anti-phospho-Histone H2A.X. […]
(§3) Graphical representation and statistical analysis was performed in GraphPad Prism 7 (GraphPad, La Jolla, USA).
(§4) 3D Spheroid assays: A2780_control and A2780 FEN1_ KO as well as A2780cis_control and A2780cis FEN1_ KO cells were seeded at 4500 cells/cm2 density in ultra-low attachment 6-well plates (174932, Thermo Fisher Scientific) and cultured in 3D Tumorsphere Medium (C28070, PromoCell, UK) at 37°C in a 5% CO2 atmosphere. Cells were keep in culture for 7-10 days, toping up with fresh medium every two days until spheroids structures were formed.

The subject of experiment [2] is XRCC1 deficient HeLa cells. The experiment can be described thus: FEN1 inhibitor cytotoxicity, XRCC1 deficient HeLa. The format is cell-based. To be noted: vs HeLa control.
Experiment [3] deals with PEO1 cells. The experiment can be described thus: Annexin V apoptosis detection, PEO1. The format is cell-based, human. To be noted: FEN1i monotherapy. As to the method:
(§5) Apoptosis detection: Annexin V detection kit (556547, BD Biosciences) was used to quantify apoptotic cells. Briefly, cells were trypsinized, washed with PBS and the cellular pellet was re-suspended in Anexin Binding Buffer (1×). Following, FITC Anexin V and Propidium Iodide were added to the cells. After incubation, Anexin binding Buffer (1×) was added to each tube. All the samples were analysed on a Beckman-Coulter FC500 flow cytometer. The percentage of apoptotic cells was determined (late apoptotic = FITC-Annexin V positive, PI positive early apoptotic = FITC-Annexin V positive, PI negative; live cells = FITC-Annexin V negative, PI negative) and compared for untreated and treated samples. Graphical representation and statistical analysis was performed in GraphPad Prism 7 (GraphPad, La Jolla, USA).
as §4

For another experiment, the system named is PEO4 cells. The experiment can be described thus: Annexin V apoptosis detection, PEO4. To be noted: FEN1i plus cisplatin. The format is cell-based, human. As to the method:
The samples were analysed on a Beckman-Coulter FC500 flow cytometer using a 488nm laser for excitation and emission data for PI collected using a 620nm bandpass filter (FL3) and a 525nm bandpass filter (FL1) for FITC-anti-phospho-Histone H2A.X.
as §5
3D Spheroid assays: A2780_control and A2780 FEN1_ KO as well as A2780cis_control and A2780cis FEN1_ KO cells were seeded at 4500 cells/cm2 density in ultra-low attachment 6-well plates (174932, Thermo Fisher Scientific) and cultured in 3D Tumorsphere Medium (C28070, PromoCell, UK) at 37°C in a 5% CO2 atmosphere. […]

In experiment [4] the test system is POLβ KO A2780cis cells. Kind of experiment: Clonogenic assay, POLβ KO A2780cis. The class given is cell-based, human. To be noted: vs POLβ proficient A2780cis. Here is the method:
Clonogenic assay: In the clonogenic assay (colony formation assays), 32 cells/cm2 were seeded in 6-well plates and left at 37°C in a 5% CO2 atmosphere. Cisplatin (5µM) and/or FEN1i (10µM) and/or Importazole (5 µM, Selleckem, S8446 ) were added at the indicated concentrations and the plates were left at 37 °C in a 5% CO 2 atmosphere for 14 days. Later, the plates were washed with PBS, fixed and stained with a crystal violet, acetic acid and methanol solution and colonies were counted. […]

The test system of experiment [5] is XRCC1 deficient A2780cis cells. Kind of experiment: FEN1 inhibitor cytotoxicity, XRCC1 deficient A2780cis. To be noted: vs A2780cis control. The class given is cell-based, human.
Another experiment relates to A2780cis cells. Kind of experiment: Cell cycle progression, A2780cis. The format is cell-based, human. To be noted: FEN1i plus cisplatin. Here is the method:
as §1, §2, §3, §4

In a further experiment the test system is A2780cis spheroids. The experiment can be described thus: 3D spheroid assay, A2780cis. The format is cell-based, human. To be noted: FEN1i/cisplatin combination vs cisplatin or FEN1i monotherapy. As to the method: as §1
Cell cycle progression: Cells were treated with 20 µg/ml RNase A (12091021, Invitrogen) and then 10 µg/ml Propidium Iodide (P4170, Sigma Aldrich) was added to determine the cell cycle distribution. The samples were analysed on a Beckman-Coulter FC500 flow cytometer using a 488nm laser for excitation and emission data for PI collected using a 620nm bandpass filter (FL3) and a 525nm bandpass filter (FL1) for FITC-anti-phospho-Histone H2A.X.
Apoptosis detection: Annexin V detection kit (556547, BD Biosciences) was used to quantify apoptotic cells. Briefly, cells were trypsinized, washed with PBS and the cellular pellet was re-suspended in Anexin Binding Buffer (1×). […] All the samples were analysed on a Beckman-Coulter FC500 flow cytometer. The percentage of apoptotic cells was determined (late apoptotic = FITC-Annexin V positive, PI positive early apoptotic = FITC-Annexin V positive, PI negative; live cells = FITC-Annexin V negative, PI negative) and compared for untreated and treated samples. […]
To quantify cell viability, LIVE/DEAD Viability/Cytotoxicity Kit (L3224, Thermo Fisher Scientific) was used. […] At least 10 spheroids were measured. […]

The test system of experiment [6] is PEO1 cells. Kind of experiment: Cell cycle progression, PEO1. The format is cell-based, human. To be noted: FEN1i monotherapy. As to the method:
as §1, §2, §3, §4

Molecules are shown by their SMILES.

For the compound `Cc1csc2c1c(=O)n(O)c(=O)n2-c1ccccc1` [PTPD, 3-hydroxy-5-methyl-1-phenylthieno [2,3 d]pyrimidine-2,4(1H,3H)-dione], the cell cycle effect result in the experiment on POLβ KO A2780cis cells [1] was “G2/M cell cycle arrest”; in the experiment on A2780cis cells, “G2/M cell cycle arrest”; in the experiment on PEO1 cells [6], “S-phase and G2/M-phase cell cycle arrest”. For the same compound, the “sensitivity to FEN1 inhibitor” value was “did not observe any increased sensitivity” in experiment [2], “more sensitive to FEN1 inhibition” in the experiment on POLβ KO A2780cis cells [4] and “did not observe any increased sensitivity” in [5]. Moreover, the apoptosis result is “induction of apoptosis” in the experiment on PEO1 cells [3] and “accumulation of apoptotic cells” in the experiment on PEO4 cells. Moreover, in the experiment on A2780cis spheroids, the “cell death in 3D-spheroids” value was “increased cell death”.
